# Experimental data: patent US20090018146A1, “Combination Therapy with Triterpenoid Compounds and Proteasome Inhibitors” (Research Development Corporation, priority 2005, published 2009)
# Columns and labels:
# [1] = test system: Hsc70, Hsp60, grp75, calnexin; test: Western blot of other chaperone proteins in avicin D treated Jurkat cells; assay type: cell-based, human; details: avicin D 1 μM, up to 4 hours
# Experimental: (§1) Jurkat T cells (2 μg/ml=1 μM), U-937 (4 μg/ml), MJ (5 μg/ml), and HH cells (2.5 μg/ml) were treated for 0-24 hours with the indicated concentrations of avicin D. PBLs from the patients or normal blood were treated with 5 μg/ml of avicin D for 24 hours.
# (§2) At the end of treatments, cells were harvested, washed with sterile ice-cold PBS and cytoplasmic extracts (CE) were prepared by lysing the cells in CE buffer containing 10 mM Hepes-Cl pH 7.5, 10 mM KCl, 0.1 mM EDTA, 0.1 mM EGTA, 0.3% NP40, and a protease inhibitor cocktail (Sigma). After centrifugation and separating the supernatant (CE proteins), the pellet was resuspended in a buffer containing 20 mM Hepes-Cl, 400 mM NaCl, 1 mM EDTA, 1 mM EGTA, and protease inhibitor cocktail (Sigma). The nuclear protein extraction proceeded for 30 min. on ice followed by centrifugation at 14,000 rpm for 5 min at 4° C. The clear supernatant containing nuclear proteins (NE) was collected, glycerol (10%) was added, and proteins stored at −80° C. until use.
# (§3) SDS-PAGE and immunoblot procedures were essentially performed as described (Sambrook, 1989). […] Protein bands were detected using the ECL chemiluminescence kit from Amersham as per the manufacturer's protocol.
# (§4) Quantitation of proteins (western) and transcripts (RT-PCR) was performed using the NIH 1.61 image software.
# Hsp90 = test: Western blot of Hsp90 protein in avicin D treated Jurkat cells; assay type: cell-based, human; details: avicin D 1 μM, within one hour up to 4 hours, western blot vs untreated
# Experimental: as §1, §2, §3, §4
# Hsp70 transcript = test: Northern blot of Hsp70 transcript in Jurkat cells; assay type: cell-based, human
# Text: Total RNA from the control and avicin treated Jurkat T cells was made using Trizol (Invitrogen). Equal amounts of RNA were separated on form amide gels and transferred to nylon membranes (Hybond N+, Amersham) and UV cross-linked using UV Stratalinker (Stratagene). Staining the membranes with 0.03% methylene blue solution in 0.3% sodium acetate, pH 5.2, monitored equal loading. The DNA probes for Hsp70 and Hsp90 were purchased from StressGen as pUC plasmids and used according to the manufacturer's protocol. The DNA fragments were radiolabeled using a Nick Translation kit from Gibco BRL and [^32P] dCTP (Amersham). The membranes were exposed for autoradiography after hybridization using ExpressHyb (Clontech) solution at 58° C. for 1 hour and 5 washes, each of 20 minutes, with 5× SSC containing 0.1% SDS at 50° C.
# caspase 9 = test: Western blot of caspase 9 cleavage in Jurkat cells; assay type: cell-based, human; details: 2 hours of treatment
# Experimental: as §1, §2, §3
# Hsp70 [2] = test: Western blot of Hsp70 in primary PBL from Sezary syndrome patients; assay type: cell-based, human; details: 5 μg/ml, 24 hours
# Experimental: as §1, §2, §3, §4
# 20S proteasomal activity = molecular target: T1, 20S proteasomal activity (Homo sapiens, UniProt Q99436); test: 20S proteasomal assay in Jurkat cells; assay type: cell-based; details: for decrease in the 20S proteasomal activity: avicin D 1 μM
# T1 construct: Proteasomal extracts (PE) were prepared; endogenous in cells; host or cells: Jurkat T cells (proteasomal extracts)
# T1 sequence (Q99436 44-277): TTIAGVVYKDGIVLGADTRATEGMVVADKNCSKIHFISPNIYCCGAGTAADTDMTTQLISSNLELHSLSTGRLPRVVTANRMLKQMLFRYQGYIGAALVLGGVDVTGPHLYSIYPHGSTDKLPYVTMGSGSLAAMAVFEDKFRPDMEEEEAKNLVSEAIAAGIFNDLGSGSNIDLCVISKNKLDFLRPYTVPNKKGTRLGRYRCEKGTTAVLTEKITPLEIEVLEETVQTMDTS
# Experimental: Jurkat T cells were treated with 1 μM of avicin D for 0-4 hours. Proteasomal extracts (PE) were prepared as described previously (18) in a buffer containing 50 mM Hepes pH 8, 5 mM EGTA, 0.3% NP40, and 10% glycerol. The assay reaction contained 20 mM Tris-Cl pH7.2, 0.1 mM EDTA, 1 mM β-mercaptoethanol, 5 mM ATP, 20% glycerol, 0.02% SDS, and 0.04% NP40. About 10 μg of the PE proteins and BocLRR-AMC (0.1 mM), which allows measurement of the trypsin-like activity of proteasomes, was used as substrate. The reaction was carried out at 30° C. for 30 minutes and the fluorescence was read at 380 nm (excitation) and 460 nm (emission) in a Perkin Elmer HTS 7000 Plus, Bioassay Reader.
# Statistical significance of differences observed in the proteasomal activity in avicin treated cells compared with the untreated cells was determined by using an unpaired Student t test. The minimum level of significance was a P<0.05.
# recombinant Hsp70 = test: In vitro ubiquitination assay with recombinant Hsp70, his-ub and CE proteins of treated cells; assay type: biochemical, bovine; details: cytoplasmic extracts of treated vs untreated Jurkat cells
# Experimental: Ubiquitination assays were performed as described (Firestein and Feuerstein, 1998) with few modifications using recombinant bovine Hsp70 and N-terminal histidine-tagged ubiquitin (his-ub). About 0.5 μg of Hsp70 and 4 μg of his-ub were incubated in a buffer containing 50 mM Tris-Cl pH 7.5, 2.5 mM MgCl2, 0.05% NP 40, 0.5 mM DTT, 5 mM ATP, 4 μM MG132, and ATP regenerating system containing 10 mM creatine phosphate, 0.1 μg/ml of creatine kinase, and about 50 μg of CE proteins. The reaction was carried out for 1 hour at 30° C. and the products were subjected to nickel agarose chromatographic purification to purify histidine-tagged proteins as per manufacturer's protocol (Qiagen). The affinity-purified proteins were prepared for SDS-PAGE and western analysis using anti-Hsp70 antibodies.
# [3] = test system: Hsp90α, Hsc70, and Hsp60 transcripts; test: One-step RT-PCR of Hsp90α, Hsc70 and Hsp60 transcripts in Jurkat cells; assay type: cell-based, human
# Experimental: Total RNA purified using Trizol method (Invitrogen) was subjected to DNAseI (RNAase free, Sigma Chemical Co.) treatment to remove any residual DNA, followed by heat inactivation and addition of 1 mM EDTA. Absence of genomic DNA was confirmed by performing PCR using Taq DNA polymerase. About 50-100 ng of purified total RNA was used in a one-step RT-PCR reaction kit from Invitrogen in a Techne Genius machine. The samples were separated on 0.8% agarose-TBE gels and viewed by staining with ethidium bromide.
# as §4
# [4] = test system: ubiquitin-protein conjugates; test: Western blot of ubiquitin-protein conjugates in Jurkat cells; assay type: cell-based, human; details: from around 2 hours
# Experimental: as §1, §2, §3
# Hsp70 [5] = test: Western blot of Hsp70 protein in avicin D treated Jurkat cells; assay type: cell-based, human; details: avicin D 1 μM, within one hour up to 4 hours, western blot vs untreated
# Experimental: as §1, §2
# SDS-PAGE and immunoblot procedures were essentially performed as described (Sambrook, 1989). Briefly, cytoplasmic and nuclear proteins were resolved on SDS-PAGE, blotted on PVDF membranes (BioRad) and probed with various antibodies followed with anti-rabbit, anti-mouse antibody conjugated to horseradish peroxidase (HRP) from BioRad or HRP conjugated anti-goat antibody from Santa Cruz Biotechnology, corresponding to the primary antibody. Protein bands were detected using the ECL chemiluminescence kit from Amersham as per the manufacturer's protocol.
# as §4
# Hsp27 = test: Western blot of Hsp27 protein in avicin D treated Jurkat cells; assay type: cell-based, human; details: avicin D 1 μM, 2-4 hours
# Experimental: as §1, §2, §3, §4
smiles,measurement,setting,value
C=C[C@](C)(O)CC/C=C(\CO)C(=O)O[C@H]1[C@H](O)[C@@H](O)[C@H](O[C@@](C)(C=C)CC/C=C(\CO)C(=O)O[C@H]2C[C@]3(C(=O)O[C@@H]4O[C@H](CO)[C@@H](O)[C@H](O)[C@H]4O[C@@H]4O[C@@H](C)[C@H](O[C@@H]5O[C@@H](CO)[C@H](O)[C@H]5O)[C@@H](O[C@@H]5O[C@H](CO)[C@@H](O)[C@H](O)[C@H]5O)[C@H]4O)[C@H](O)C[C@]4(C)C(=CC[C@@H]5[C@@]6(C)CC[C@H](O[C@@H]7O[C@H](CO[C@@H]8O[C@H](C)[C@H](O)[C@H](O)[C@H]8O[C@@H]8OC[C@@H](O)[C@H](O)[C@H]8O)[C@@H](O)[C@H](O)[C@H]7NC(C)=O)C(C)(C)[C@@H]6CC[C@]54C)[C@@H]3CC2(C)C)O[C@@H]1C [avicin D],"expression of other chaperone proteins (Hsc70, Hsp60, grp75, calnexin)",[1],did not show any change
same,protein levels of Hsp90,Hsp90,significant decrease
same,increase in Hsp70 transcript (Northern blot),Hsp70 transcript,~1.4 fold
same,cleavage of caspase 9,caspase 9,increased cleavage
same,decrease in Hsp70 protein,Hsp70 [2],25-35%
same,decrease in the 20S proteasomal activity,20S proteasomal activity; 2 hours,33%
same,decrease in the 20S proteasomal activity,20S proteasomal activity; 4 hours,41%
same,decrease in proteasome activity,20S proteasomal activity; during 2-4 hours of treatment,30-40%
same,in vitro ubiquitination of Hsp70 (his-ub-Hsp70 ladder),recombinant Hsp70,stronger ladder of his-ub-Hsp70
same,"changes in the transcripts encoding Hsp90α, Hsc70, and Hsp60 (RT-PCR)",[3],marginal
same,ubiquitin-protein conjugates in cell extracts,[4],protein conjugates observed
same,protein levels of Hsp70,Hsp70 [5],significant decrease
same,increase of Hsp27,Hsp27,1.4 fold
